{"source": "patent US20100222410A1", "about": "“Nuclease compositions and methods” (Massachusetts Institute of Technology, priority 2008, published 2010)", "key": {"E. coli": {"test_system": "E. coli", "test": "17S rRNA accumulation after treatment of E. coli (total rRNA analysis)", "assay_type": "cell-based", "method": "Polysome and rRNA analysis. Polysome profiles were obtained as described previously. rRNA was extracted from logarithmically growing cultures or separated ribosome fractions using Qiagen RNeasy Mini Kit. 16S and 23 rRNA were separated using Synergel/Agarose gel electrophoresis as described previously. […] The site-specific RNase H cleavage assay was performed as described previously followed by Northern hybridization using primers specific for the mature 3′termini of 16S, 23S, and 5S, respectively. 100 ng of total MC4100 or mutant RNA were used for each assay. All reactions were separated on denaturing polyacrylamide gels."}, "YbeY": {"target": "T1, YbeY (Escherichia coli, UniProt P0A898)", "T1 construct": "His (N, cleaved yes); MBP (N, cleaved yes); made in house; host or cells: E. coli, pET28A vector, IPTG induction", "T1 sequence (P0A898 whole entry)": "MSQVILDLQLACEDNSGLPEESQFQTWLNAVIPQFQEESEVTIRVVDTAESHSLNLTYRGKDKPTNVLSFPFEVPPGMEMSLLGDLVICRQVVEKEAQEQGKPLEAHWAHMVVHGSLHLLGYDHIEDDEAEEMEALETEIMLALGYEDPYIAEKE", "test": "Inhibition of YbeY RNase activity in the in vitro cleavage assay (total rRNA substrate)", "assay_type": "biochemical, E. coli", "method": "(§1) In vitro cleavage assays. All YbeY RNase assays were carried out in 50 mM HEPES pH 7.5 in a 20 μl final volume and used 0.2 μg of purified YbeY or 8.0 μg of MBP-YbeY. For assays using total rRNA or folA mRNA as substrate, 800 ng of total E. coli rRNA or synthesized folA mRNA was incubated with YbeY or MBP-YbeY for 30′ at 37° C., separated on an agarose/synergel mix gel and stained with ethidium bromide. Where indicated EDTA was added to 50 mM and MgSO4 was added to 5 mM. For assays using ΔybeY mutant 70S ribosomes as substrate, 800 ng of ΔybeY mutant 70S ribosomes was incubated with YbeY for the indicated time at 37° C., separated on an agarose/synergel mix gel and stained with ethidium bromide. For each reaction, 200 pmol of short RNA substrate was incubated with YbeY or MBP-YbeY for the indicated time at 37° C. Products were separated on denaturing PAGE. The ladder used for each substrate was made by alkaline hydrolysis of the respective substrate. A synthesized short rRNA of defined length was used as a reference for numerating the ladder."}, "folA mRNA": {"test_system": "folA mRNA", "test": "In vitro cleavage assay, defined mRNA as substrate", "assay_type": "biochemical", "method": "as §1"}, "[1]": {"test_system": "short, sequence-defined, RNA substrates", "test": "In vitro cleavage assay, short sequence-defined RNA substrates", "assay_type": "biochemical", "settings": "for position of major cleavage product from the beginning of the duplex: partially dsRNA substrate with ssRNA 3′ terminus", "method": "as §1"}, "[2]": {"test_system": "16S rRNA 3′ terminus mimic", "test": "YbeY activity on 16S rRNA 3′ terminus mimics", "assay_type": "biochemical, E. coli", "method": "as §1"}, "[3]": {"test_system": "double stranded or single stranded DNA", "test": "YbeY activity on DNA", "assay_type": "biochemical", "settings": "in vitro"}, "total E. coli rRNA": {"test_system": "total E. coli rRNA", "test": "In vitro cleavage assay, total rRNA as substrate", "assay_type": "biochemical", "settings": "MBP-YbeY at four times the molar concentration of YbeY", "method": "as §1"}, "[4]": {"test_system": "purified 70S ribosomes isolated from the ΔybeY mutant", "test": "In vitro cleavage assay, 70S ribosomes as substrate", "assay_type": "biochemical, E. coli", "settings": "over time, absence of Mg^2+", "method": "as §1"}, "[5]": {"settings": "partially duplexed RNA substrate with 5′ ssRNA terminus, FIG. 3G"}}}
{"compound": "CC1(C)S[C@@H]2[C@H](NC(=O)[C@H](N)c3ccccc3)C(=O)N2[C@H]1C(=O)O", "note": "[ampicillan]", "values": [{"measurement": "accumulation of 17S rRNA", "setting": "E. coli", "result": "does not cause the accumulation of 17S"}]}
{"compound": "[Mg+2]", "note": "[Mg^+2, magnesium(II)]", "values": [{"measurement": "Mg^+2 concentration that inhibits YbeY's RNase activity", "setting": "YbeY; in vitro, MgSO4 added", "result": "≥ 5", "unit": "mM"}]}
{"compound": "O=C(N[C@H](CO)[C@H](O)c1ccc([N+](=O)[O-])cc1)C(Cl)Cl", "note": "[chloramphenicol]", "values": [{"measurement": "accumulation of 17S rRNA", "setting": "E. coli", "result": "induce the rapid accumulation of 17S rRNA"}]}
{"compound": "OO", "note": "[hydrogen peroxide]", "values": [{"measurement": "accumulation of 17S rRNA", "setting": "E. coli", "result": "does not cause the accumulation of 17S"}]}
{"compound": "CN[C@@H]1[C@H](O)[C@H](NC)[C@H]2O[C@@]3(O)C(=O)C[C@@H](C)O[C@H]3O[C@@H]2[C@H]1O", "note": "[spectinomycin]", "values": [{"measurement": "accumulation of 17S rRNA", "setting": "E. coli", "result": "induce the rapid accumulation of 17S rRNA"}]}
{"compound": "O=C(O)CN(CCN(CC(=O)O)CC(=O)O)CC(=O)O", "note": "[EDTA, ethylenediaminetetraacetic acid]", "values": [{"measurement": "degradation of total rRNA by YbeY in presence of EDTA", "setting": "YbeY; EDTA added to 50 mM, 30′ at 37° C.", "result": "inhibited"}]}
{"compound": "gentamycin", "values": [{"measurement": "accumulation of 17S rRNA", "setting": "E. coli", "result": "induce the rapid accumulation of 17S rRNA"}]}
{"compound": "YbeY: E. coli UPF0054 family member, purified as MBP fusion, MBP removed by TEV protease cleavage; C-terminal FLAG tag", "values": [{"measurement": "degradation of a defined mRNA", "setting": "folA mRNA", "result": "can also degrade"}, {"measurement": "cleavage of single-stranded RNA (ssRNA) substrate, short sequence of 16S rRNA", "setting": "[1]; FIG. 3C", "result": "cleaved"}, {"measurement": "cleavage of a perfect RNA duplex", "setting": "[1]; FIG. 3D", "result": "unable to cleave"}, {"measurement": "cleavage of hairpin substrate within the loop", "setting": "[1]; hairpin with perfectly paired blunt terminus, FIG. 3H", "result": "efficiently cleaved"}, {"measurement": "position of major cleavage product from the beginning of the duplex", "setting": "[1]; FIG. 3E", "result": "+1 bases"}, {"measurement": "position of major cleavage product from the beginning of the duplex", "setting": "[1]; FIG. 3F", "result": "+2 bases"}, {"measurement": "cleavage inside the duplex", "setting": "[1]; [5]", "result": "no cleavage events were observed"}, {"measurement": "position of major cleavage product from the duplexed end", "setting": "[1]; [5]", "result": "+2 bases"}, {"measurement": "position of the major YbeY cut", "setting": "[1]; third partially dsRNA substrate with free 3′ ssRNA terminus, different nucleotide sequence", "result": "flush with the dsRNA end"}, {"measurement": "cleavage of 50 nucleotide ssRNA 16S rRNA 3′ terminus mimic", "setting": "[2]; mimic alone, 4 μg of YbeY", "result": "cleaved this substrate to generate a mature 3′ terminus"}, {"measurement": "cleavage at the maturation site", "setting": "[2]; mimic paired with a short mRNA, flap like structure", "result": "enhance YbeY cleavage at the maturation site"}, {"measurement": "degradation of double stranded or single stranded DNA", "setting": "[3]", "result": "did not degrade"}, {"measurement": "RNase activity against total E. coli rRNA", "setting": "total E. coli rRNA", "result": "can degrade total E. coli rRNA"}, {"measurement": "degradation of 70S ribosomes", "setting": "[4]", "result": "effectively degraded"}]}
